# Experimental data taken from patent US10544131B2, “MCL-1 antagonists” (The Regents of the University of California, priority 2014, dated 2020).
# “Also recorded” adds a separate entry of the source.
# Legend:
# Mcl-1/Bak PPI = test: liposome functional assay for Mcl-1/Bak (calcein release, MOMP model); type: biochemical; conditions: in words
# Text: The Shore lab has developed a functional assay utilizing recombinant proteins anchored in artificial liposomes that enables the evaluation of small-molecules to disrupt the Mcl-1/Bak PPI (FIG. 2A). In this assay, full-length functional single cysteine mutants of Mcl-1 and Bak were anchored into lipids (with PE's) utilizing the engineered cysteine residues as a handle. This allows Applicants to recapitulate Bak-mediated mitochondrial permeabilization and measure the various protein-protein and protein-membrane interactions involved in Mcl-1 regulation of Bak. The release of calcenin (Cn) dye encapsulated in the liposome was used to quantify membrane permeabilization. When the system is untreated, Mcl-1 sequesters Bak by engaging its BH3 domain. Incubation with an active inhibitor neutralizes Mcl-1. This triggers Bak auto-oligomerization resulting in the formation of pores in the lipid membrane and release of Cn. By measuring […] from Cn, Applicants can quantify antagonism of Mcl-1 in real time.
# (§1) Synthetic 3, along with numerous intermediates and their derivatives were assayed in a model system for mitochondrial outer membrane permeabilization (MOMP). This liposome based experiment recapitulates a signaling axis involving pro-apoptotic Bak, anti-apoptotic Mcl-1, and an active, truncated 15 kDa subunit of the pro-death protein Bid (tBid).^11 Bak and Mcl-1 are transmembrane proteins constitutively anchored in the mitochondrial outer membrane. tBid translocates to mitochondria upon cleavage of Bid by caspase-8 and stimulates MOMP by directly activating free Bak and by disengaging any activated Bak from Mcl-1. Applicants' assay mimics these events using recombinant, lipidated Mcl-1 and Bak that are constitutively bound to unilamellar liposomes encapsulating calcein dye. tBid addition initiates Bak homo oligomerization and pore formations, which in turn results in calcein release and a fluorescence signal. Mcl-1 counters this tBid dependent activation of Bak, which is overcome by small molecule Mcl-1 antagonists (FIG. 6).
# Bcl-xL = Bcl-xL (Homo sapiens, UniProt Q07817); test: liposome assay with Bcl-xL in place of Mcl-1; type: biochemical
# Chain of Bcl-xL (Q07817 whole entry, species assumed): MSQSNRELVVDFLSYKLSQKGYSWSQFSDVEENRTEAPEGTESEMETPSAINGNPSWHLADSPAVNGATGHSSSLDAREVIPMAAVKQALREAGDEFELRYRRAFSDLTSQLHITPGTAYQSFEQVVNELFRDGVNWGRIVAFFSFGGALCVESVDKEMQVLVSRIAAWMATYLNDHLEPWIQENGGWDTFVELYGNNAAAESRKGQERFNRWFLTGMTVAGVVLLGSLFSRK
# Text: (§2) Moreover, when Mcl-1 was replaced with Bcl-xL in the assay, 12 also had no effect (FIG. 10). […] Toxic thrombocytopenia caused by ABT-737 in vivo has been correlated with Bcl-xL inhibition.^25
# recombinant Mcl-1 = target: T1, recombinant Mcl-1 (Homo sapiens, UniProt Q07820); test: isothermal titration microcalorimetry (ITC) with purified recombinant Mcl-1; type: binding; conditions: for binding / affinity for Mcl-1 measurable by ITC: purified recombinant Mcl-1, in words
# T1 construct: made in house; host or cells: E. coli
# T1 sequence (Q07820 whole entry): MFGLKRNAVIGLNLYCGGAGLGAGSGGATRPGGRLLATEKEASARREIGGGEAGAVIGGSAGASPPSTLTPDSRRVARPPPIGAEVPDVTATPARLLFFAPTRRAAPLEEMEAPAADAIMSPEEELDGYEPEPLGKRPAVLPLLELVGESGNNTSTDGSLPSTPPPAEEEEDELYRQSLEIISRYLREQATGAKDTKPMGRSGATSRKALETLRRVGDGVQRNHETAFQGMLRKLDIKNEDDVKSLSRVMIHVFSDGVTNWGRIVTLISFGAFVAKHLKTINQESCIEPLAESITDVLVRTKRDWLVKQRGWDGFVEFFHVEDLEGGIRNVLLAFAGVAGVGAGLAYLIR
# Bak = test: liposome assay with Bak-loaded proteoliposomes lacking Mcl-1; type: biochemical; conditions: Bak loaded proteoliposomes without Mcl-1
# Experimental: as §1
# (§3) Recombinant Mcl-1 was expressed and purified from E. coli.
# as §2
# [1] = system: Ep-myc (myr) Akt lymphoma cells; test: mouse lymphoma model with and without doxorubicin, tumor-free survival; type: in vivo, C57BL/6 mice
# Experimental: C57BL/6 mice were tail-vein injected with Ep-myc (myr) Akt lymphoma cells and palpable tumors (multiple sites per animal) allowed to develop. Animals were randomized for tumor burden and treated by intraperitoneal (IP) injection with vehicle, or vehicle containing obatoclax (10 mg/kg) or JHF3056 (40 mg/kg) daily×5. In addition, animals received a single injection of doxorubicin (IP, 10 mg/kg) on day 2 of the injection regimen, either alone or in combination with the obatoclax (9) or JHF3056 (10) regimen. Animals were allowed to become tumor-free (no observable palpable tumors) and then tumor-free survival was measured (time to re-appearance of tumors).
# human KMS-11 cells = test: cytotoxicity in cell culture, KMS-11; type: cell-based; conditions: 1.0 μM concentration
# [2] = system: human KMS-11 myeloid leukemia cells; test: cytotoxicity in cell culture, KMS-11; type: cell-based; conditions: KMS-11 cells, single dose, in words
# [3] = in vivo toxicity (minimum toxic dose)
# truncated Bid = test: binding to truncated Bid; conditions: data not shown
# Text: as §3
# [4] = stability of the neat substance; type: physicochemical; conditions: in words
SMILES,antagonism of Mcl-1 / Bak-mediated permeabilization of liposomal membranes (Mcl-1/Bak PPI),MOMP-like pore formation in liposomes containing Bcl-xL (Bcl-xL),Kd (recombinant Mcl-1; purified recombinant Mcl-1),binding / affinity for Mcl-1 measurable by ITC (recombinant Mcl-1),calcein release from liposomes lacking Mcl-1 (Bak),"anti-tumor activity in combination with doxorubicin ([1]; JHF3056 40 mg/kg IP daily×5, doxorubicin 10 mg/kg IP day 2)","anti-tumor activity in combination with doxorubicin ([1]; JHF3056 40 mg/kg IP daily×5, doxorubicin 10 mg/kg IP day 2, listed as 10)",cytotoxic activity relative to obatoclax (human KMS-11 cells),cytotoxicity [2],cytotoxicity ([2]; listed as 10),binding / affinity for Mcl-1 measurable by ITC (recombinant Mcl-1; listed as 5),antagonism of Mcl-1 / Bak-mediated permeabilization of liposomal membranes (Mcl-1/Bak PPI; listed as 5),antagonism of Mcl-1 / Bak-mediated permeabilization of liposomal membranes (Mcl-1/Bak PPI; listed as 10),minimum toxic dose ([3]; in vivo),toxicity at pharmacologically relevant doses ([3]; in words),binding to truncated Bid (truncated Bid),stability [4],stability ([4]; listed as 5)
"COc1cc(-c2[nH]ccc2Cl)oc1C1=C2N=C3C=C2[C@H](C(C)C)[C@H]1CCCCCCCC3 [roseophilin, reference compound]",little activity,,,,,,,,,,,,,,,,,
COc1cc(-c2c(Cl)ccn2S(=O)(=O)c2ccc(C)cc2)oc1-c1nnn[nH]1 [Compound 12],stimulate Bak-mediated permeabilization of liposomal membranes; also recorded: successfully drove pore formations; also recorded: exceeded that of 5 and obatoclax,no effect; also recorded: did not stimulate MOMP-like pore formations,700 ± 120 nM,"strong, saturable binding",did not release calcein dye,,,,,,,,,,,,,
"COc1cc(-c2c(Cl)ccn2S(=O)(=O)c2ccc(C)cc2)oc1C(C)=O [JHF3056, 1-(5-(3-chloro-1-tosyl-1H-pyrrol-2-yl)-3-methoxyfuran-2-yl)ethan-1-one]",capacity to antagonize the Mcl-1/Bak PPI; also recorded: directly antagonizes Mcl-1; also recorded: superior performance of JHF3056 (10) relative to 8 and 9,,,,did not induce release of calcein,sensitizes lymphoma tumor xenografts to doxorubicin,clear anti-tumor activity in combination with the chemotherapeutic doxorubicin,enhanced activity relative to obatoclax (9),cytotoxic at micromolar concentrations; also recorded: sub-micromolar cytotoxicity,sub-micromolar single dose cytotoxicity,Neither 2 nor 5 demonstrated measurable affinity,counter Mcl-1 activity and promote Bak-mediated permeabilization of liposomal membranes; also recorded: near equipotent to 4,promising activity,80 mg/kg,nontoxic at pharmacologically relevant doses,no binding,stable solid,bench stable solid
